Measurements from patent US20220054494A1, “METHODS FOR TREATING BLADDER AND URETHRA DYSFUNCTION AND DISEASE” (University of Pittsburgh - Of the Commonwealth System of …, priority 2019, published 2022).
“Also recorded” adds a separate entry of the source.

Experiments:
aged rats [1] = assay: Von Frey testing of tactile sensitivity, aged rats; format: in vivo, rat
Description: Von Frey testing: Forty-eight hours after metabolism studies, tactile sensitivity was measured (once per week for the duration of the study) using von Frey nylon filaments applied to the suprapubic and plantar hindpaw (Stoelting Co., Wood Dale, Ill., USA). The median 50% withdrawal threshold (using up-down method) with positive responses are recorded as sharp retraction, licking/scratching, or vocalization.
Von Frey testing: Forty-eight h after the metabolism studies, tactile sensitivity was measured once per week using von Frey nylon filaments (Stoelting Co., Wood Dale, Ill., USA) applied to the suprapublic and plantar hindpaw. The median 50% withdrawal threshold (using an up-down method) with positive responses was recorded as sharp retraction, licking/scratching, or vocalization.
Von Frey Testing: Forty-eight hr after the metabolic cage studies, tactile sensitivity was measured once per week for the duration of the study using von Frey nylon filaments (Stoelting Co., Wood Dale, Ill., USA) applied to the suprapublic and plantar hindpaw. The withdrawal threshold (using up-down method) was determined, with positive responses defined as sharp retractions, licking/scratching, or vocalizations.

[2] = system: dynamin-related protein (DRP-1); assay: Western immunoblotting, DRP-1; format: in vivo, rat; conditions: aged rats; oral 8-AG 5 mg/kg/day, 6 weeks
Description: Western immunoblotting: One half of each bladder preparation was homogenized using Lysing Matrix D in a FastPrep 24 instrument (MP Biomedicals, Solon, Ohio) in HBSS (5 mM KCl, 0.3 mM KH2PO4, 138 mM NaCl, 4 mM NaHO3, 0.3 mM Na2HCO3, 0.3 mM Na2HPO4, 5.6 mM glucose and 10 mM Hepes, pH 7.4) containing complete protease inhibitor cocktail (1 tablet/10 ml, ROCHE®, Indianapolis, Ind.)) and phosphatase inhibitor cocktail (SIGMA®, 1:100). After centrifugation (13000 rpm; 15 min at 4° C.), the membrane protein fraction was prepared by suspending the membrane pellets in lysis buffer containing 0.3 M NaCl, 50 mM Tris-HCl (pH 7.6) and 0.5% Triton X-100 and the same concentration of protease inhibitors as above. The suspensions were incubated on ice and centrifuged (13000 rpm; 15 min at 4° C.). The protein concentrations of the combined supernatants were determined using the PIERCE® BCA protein assay (THERMO SCIENTIFIC®, Rockford, Ill.). […] As a loading control, total protein per sample was determined using Bio-Rad® Stain Free SDS-PAGE gel technology. UV-activated protein fluorescence was imaged on a CHEMIDOC® MP (BIO-RAD®). […] The volume (intensity) of each protein species was determined and normalized to total protein using Image Lab software (BIO-RAD®).

cleaved PARP = assay: Western immunoblotting, cleaved PARP; format: in vivo, rat; conditions: aged rats; oral 8-AG 5 mg/kg/day, 6 weeks
Description: Western immunoblotting: One half of each bladder preparation was homogenized using Lysing Matrix D in a FastPrep 24 instrument (MP Biomedicals, Solon, Ohio) in HBSS (5 mM KCl, 0.3 mM KH2PO4, 138 mM NaCl, 4 mM NaHO3, 0.3 mM Na2HCO3, 0.3 mM Na2HPO4, 5.6 mM glucose and 10 mM Hepes, pH 7.4) containing complete protease inhibitor cocktail (1 tablet/10 ml, ROCHE®, Indianapolis, Ind.)) and phosphatase inhibitor cocktail (SIGMA®, 1:100). After centrifugation (13000 rpm; 15 min at 4° C.), the membrane protein fraction was prepared by suspending the membrane pellets in lysis buffer containing 0.3 M NaCl, 50 mM Tris-HCl (pH 7.6) and 0.5% Triton X-100 and the same concentration of protease inhibitors as above. The suspensions were incubated on ice and centrifuged (13000 rpm; 15 min at 4° C.). The protein concentrations of the combined supernatants were determined using the PIERCE® BCA protein assay (THERMO SCIENTIFIC®, Rockford, Ill.). After denaturation (100° C. for 5 min) in the presence of Laemmli sample buffer, lysate from each sample was separated on a 4-15% TGX Stain-Free SDS-PAGE gel (BIO-RAD® Laboratories, Hercules, Calif.). As a loading control, total protein per sample was determined using Bio-Rad® Stain Free SDS-PAGE gel technology. UV-activated protein fluorescence was imaged on a CHEMIDOC® MP (BIO-RAD®). […] The volume (intensity) of each protein species was determined and normalized to total protein using Image Lab software (BIO-RAD®).

aged rats [3] = assay: Voiding analysis in metabolic cages, aged rats; format: in vivo, rat
[4] = Jackson et al., J Pharmacol Exp Ther 2016; cited from earlier work
[5] = system: deoxycorticosterone/salt-induced hypertension; conditions: chronic oral treatment of rats; Jackson et al. 2016; cited from earlier work
PNPase = PNPase (Homo sapiens, UniProt P00491); conditions: Jackson et al., J Am Heart Assoc 2018; cited from earlier work
PNPase, sequence (P00491 whole entry): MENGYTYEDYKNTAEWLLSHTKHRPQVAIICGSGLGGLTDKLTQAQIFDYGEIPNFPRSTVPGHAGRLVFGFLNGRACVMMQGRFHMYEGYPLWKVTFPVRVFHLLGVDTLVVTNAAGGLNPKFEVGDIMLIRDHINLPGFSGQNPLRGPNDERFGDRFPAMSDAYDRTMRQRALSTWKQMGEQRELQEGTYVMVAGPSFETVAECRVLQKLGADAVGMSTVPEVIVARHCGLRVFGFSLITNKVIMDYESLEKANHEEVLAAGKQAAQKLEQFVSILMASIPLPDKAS

[6] = aged Fischer 344 rats, oral 8-AG 5 mg/kg/day, 6 weeks
[7] = aged Fisher 344 rats, 8-AG 5 mg kg/day via drinking water, 1 month
[8] = aged rats, intravesical 100 μM 8-AG plus 10 μM DEA-NONOate, daily infusion 3-6 weeks

Nc1nc2[nH]c(N)nc2c(=O)[nH]1 [8-AG, 8-Aminoguanine]
abdominal response to tactile mechanical stimuli (aged rats [1]; [6]): restored to a younger state | somatic response to tactile mechanical stimuli (aged rats [1]; [6]): restored to a younger state | abdominal tactile mechanical sensitivity (aged rats [1]; [7]): restored to a younger state; also recorded: reversed | somatic tactile mechanical sensitivity (aged rats [1]; [7]): restored to a younger state; also recorded: reversed | abdominal tactile mechanical sensitivity (aged rats [1]; [8]): increase in sensitivity; also recorded: improves | somatic tactile mechanical sensitivity (aged rats [1]; [8]): increase in sensitivity; also recorded: improves | DRP-1 in bladder mucosa [2]: reversed or restored to levels similar to the younger state; also recorded: restored changes similar to a younger state | EUS cleaved PARP (cleaved PARP): restored to a younger state | cleaved PARP in detrusor smooth muscle (cleaved PARP): levels similar to the younger state; also recorded: restored these biomarkers to that of a younger state | urethral cleaved PARP (cleaved PARP): normalized to a younger state | intercontraction interval (aged rats [3]; [6]): attenuates | intercontraction interval (aged rats [3]; [7]): attenuates | diuresis [4]: induce | glucosuria [4]: induce | natriuresis [4]: induce | potassium excretion [4]: reduce | development of deoxycorticosterone/salt-induced hypertension [5]: attenuate | PNPase inhibition (mechanism of diuresis, natriuresis, glucosuria) (PNPase): inhibiting
